From US20090202565A1, “TORC POLYNUCLEOTIDES AND POLYPEPTIDES AND METHOD OF USE” (priority 2004, published 2009)
Where no end group is shown, it is not given here.

Legend:
TORC1-eGFP [1] = experiment: TORC1 (FLAG-TORC1 / TORC1-eGFP) nuclear translocation in HeLa cells, fluorescence microscopy; format: cell-based, human
Protocol: Generation of stable TORC-eGFP cell lines. HeLa cells are transfected with pCMV-TORC1-eGFP and stable integrants are selected with 700 ug/ml geneticin. A single colony that expressed TORC1-eGFP is isolated and expanded (HhTORC1eGFP cells). […]
HeLa cells are transfected with FLAG-TORC1 (FIG. 1, panels A and B) or TORC1-eGFP (panels C and D). Cells are either untreated (panels A and C) or treated with 10 nM leptomycin-B (LMB), a fungal inhibitor of CRM1 mediated nuclear export of proteins, for 90 min (panels B and D). FLAG-tagged protein is visualized by immunofluorescence while eGFP-tagged proteins are directly visualized by fluorescence. […] Since a variety of signal transduction proteins are regulated by either nuclear export or stimulus induced import, the localization of TORC1 is examined after treatment with LMB. […]

TORC2-eGFP = TORC2-eGFP nuclear translocation in HEK293 cells, fluorescence microscopy; format: cell-based, human; conditions: for translocation of TORC2-eGFP to the nucleus: 45 min, 10 nM LMB, 10 uM ionomycin, or both
Protocol: (§1) HEK293 cells are transfected with either pCMV-TORC1-eGFP, pCMV-TORC2-eGFP or pCMV-TORC3-eGFP linearized with AseT restriction endonuclease and stable integrants are selected with 700 ug/ml geneticin generating a population of cells that express TORC-eGFP. These are referred to as 293hTORC1, 293hTORC2 or 293hTORC3 cells, respectively. All of the stable TORC-eGFP cell-lines are subjected to fluorescence activated cell sorting to remove non-fluorescing cells.
(§2) The localization of human TORC2 and TORC3 is also examined. Both HeLa cells and HEK293 cells are transfected with either pCMV-TORC2-eGFP or pCMV-TORC3-eGFP.
(§3) In order to assess this possibility, HeLa cells stably expressing TORC1-eGFP are exposed to either no treatment (FIG. 5, panel A), 50 uM forskolin and 100 uM IBMX (panel B), or 1 mM db-cAMP (panel C) for 2 hours. […] Similarly, HEK293 cells stably expressing TORC2-eGFP (FIG. 5, panels D and E) or TORC3-eGFP (panels F and G) are either untreated (panels D and F) or treated with 25 uM forskolin for 1 hour (panels E and G).

TORC3-eGFP = TORC3-eGFP nuclear translocation in HEK293 cells, fluorescence microscopy; format: cell-based, human; conditions: for translocation of TORC3-eGFP to the nucleus: 45 min, 10 nM LMB, 10 uM ionomycin, or both
Protocol: as §1, §2, §3

TORC1-eGFP [2] = experiment: TORC1-eGFP nuclear translocation in stably expressing HEK293 cells; format: cell-based, human; conditions: stable HEK293; for translocation of TORC1-eGFP to the nucleus: 45 min, 10 nM LMB, 10 uM ionomycin, or both; for TORC1-eGFP fluorescence localization: 1 hr, 10 nM LMB alone, 160 nM isoproterenol alone, or isoproterenol plus LMB
Protocol: as §1
To assess whether TORC translocation is induced by stimulation of endogenous G-protein coupled receptors (GPCRs), HEK293 cells stably expressing various TORC-eGFP fusions are treated with isoproterenol, a β2-adrenergic receptor agonist, for 1 hr.

CRE-driven luciferase = experiment: CRE-dependent luciferase reporter in HeLa and HeLa::TORC1-eGFP cells; format: cell-based; conditions: 18 hours; for activation of CRE-driven luciferase in naïve HeLa cells: 5 uM ionomycin, 10 uM PMA
From the text: To determine the effect of TORC1 over-expression and localization on gene expression, CRE-dependent transcription is compared in untransfected HeLa cells and HeLa cells stably expressing TORC1-eGFP using a luciferase reporter containing a CRE-dependent promoter.

dTORC-eGFP = dTORC-eGFP translocation in Drosophila larval salivary glands; format: cell-based; conditions: 5 uM ionomycin 1 hour; 100 uM db-cAMP 4 hours
Protocol: Drosophila Methods. The Gal4 responder construct, UAS-GFP-TORC, is created by PCR cloning the eGFP gene from the pEGFP—N1 vector (Clontech # 6085-1) and the dTORC gene from Drosophila genomic DNA into the pUAST vector (Brand and Perrimon, 1993). This construct is injected into Drosophila embryos by P-element germline transformation to create transgenic lines (Rubin and Spradling, 1982). To induce expression of the fusion protein, flies containing UAS-GFP-TORC are crossed to flies containing the HS-Gal4 construct obtained from the Bloomington Stock Center, University of Indiana, Bloomington, Ind. The larvae are heat-shocked at […] and salivary glands from late third instar larvae were dissected in PBS, placed in Sang M3 media (Sigma #S3652) containing various chemical treatments in a 96-well plate. The glands are visualized using the Nikon Eclipse TE2000-E fluorescent microscope. Images are taken at a 100× magnification.
A fusion of eGFP and the Drosophila TORC (dTORC) protein is generated. […] Salivary glands dissected from transgenic larvae expressing the dTORC fusion protein are examined by microscopy. dTORC-eGFP is localized in the cytoplasm in all of the cells in the gland (FIG. 17, panels A and D). […] Thus, the localization of TORC in Drosophila is regulated by cAMP and calcium, just as in human cells. […]

CRE-luciferase [3] = experiment: CRE-luciferase reporter with dominant negative TORC1(1-44)-eGFP in HeLa cells; format: cell-based
From the text: The siRNA results (Example 12) are complicated by the need to use multiple siRNAs and to block multiple TORCs. In order to efficiently block activity of all TORC proteins more readily, a dominant interfering TORC protein is designed which fuses the highly conserved 44 amino-acid CREB-binding domain of TORC1 to eGFP (T1-44eGFP). To block activity of all TORC proteins efficiently, a dominant interfering protein that should specifically block the ability of all TORC's to interact with CREB1 is designed. The CREB1 interaction domain of TORC proteins is present in the first 44 amino acids of TORC1. The N-terminal 44 amino acids, representing the first exon of the TORC1 gene, is nearly 100% conserved in virtually all mammalian, C. elegans and Drosophila TORC proteins, yet has virtually no homology or similarity to any other proteins (Tourgenko et al., 2003). […] HeLa cells are transfected with either the eGFP control or TORC1(1-44)-eGFP with either CRE-luciferase (FIG. 16, panel A) or NFKB-luciferase (panel B) prior to stimulation with 50 uM forskolin/100 uM IBMX or 5 uM ionomycin. In panel C, HEK293 cells are transiently transfected with CRE-luciferase and the β2-adrenergic receptor (β2AR) in combination with either the empty CMV vector, eGFP, or TORC1(1-44)-eGFP fusion and exposed to isoproterenol for 18 hours. […] Thus blockade of TORC function also prevents CRE-activation through a Gs-linked GPCR using isoproterenol.

NF-kappaB reporter = experiment: NFKB-luciferase reporter with dominant negative TORC1(1-44)-eGFP in HeLa cells; format: cell-based
From the text: (§4) The siRNA results (Example 12) are complicated by the need to use multiple siRNAs and to block multiple TORCs. In order to efficiently block activity of all TORC proteins more readily, a dominant interfering TORC protein is designed which fuses the highly conserved 44 amino-acid CREB-binding domain of TORC1 to eGFP (T1-44eGFP). To block activity of all TORC proteins efficiently, a dominant interfering protein that should specifically block the ability of all TORC's to interact with CREB1 is designed. The CREB1 interaction domain of TORC proteins is present in the first 44 amino acids of TORC1. The N-terminal 44 amino acids, representing the first exon of the TORC1 gene, is nearly 100% conserved in virtually all mammalian, C. elegans and Drosophila TORC proteins, yet has virtually no homology or similarity to any other proteins (Tourgenko et al., 2003). […] HeLa cells are transfected with either the eGFP control or TORC1(1-44)-eGFP with either CRE-luciferase (FIG. 16, panel A) or NFKB-luciferase (panel B) prior to stimulation with 50 uM forskolin/100 uM IBMX or 5 uM ionomycin. In panel C, HEK293 cells are transiently transfected with CRE-luciferase and the β2-adrenergic receptor (β2AR) in combination with either the empty CMV vector, eGFP, or TORC1(1-44)-eGFP fusion and exposed to isoproterenol for 18 hours. […]

CRE-luciferase [4] = experiment: CRE-luciferase with β2-adrenergic receptor and isoproterenol in HEK293 cells; format: cell-based; conditions: HEK293 transiently transfected; isoproterenol 18 hours
From the text: as §4

[5] = transfected HEK293, LMB treatment
[6] = stable HEK293, 160 nM isoproterenol alone, 1 hr

Compound: CCC(=C/[C@H](C)C/C=C/C(C)=C/[C@@H](C)C(=O)[C@@H](C)[C@H](O)[C@@H](C)C/C(C)=C/C(=O)O)/C=C/[C@@H]1OC(=O)C=C[C@@H]1C [LMB, Leptomycin B]
- time to near complete TORC1 translocation following LMB exposure (TORC1-eGFP [1]; HeLa cells, data not shown): less than 30 minutes
- subcellular localization of TORC1 fusion proteins (TORC1-eGFP [1]; HeLa transfected with FLAG-TORC1 or TORC1-eGFP, 10 nM LMB, 90 min): present predominantly in the nucleus
- TORC1-eGFP translocation (nuclear-cytoplasmic fluorescence difference), positive control of cDNA screen (TORC1-eGFP [1]; HeLa, 384-well plates, Cellomics ArrayScan II): detected in virtually all control wells
- time until TORC2-eGFP becomes predominantly nuclear following LMB exposure (TORC2-eGFP; stable HEK293): ≤ 120 min
- translocation of TORC2-eGFP to the nucleus (TORC2-eGFP; stable HEK293): weak or no translocation to the nucleus
- nuclear accumulation of TORC2-eGFP (TORC2-eGFP; [5]): induces accumulation of both proteins in the nuclei
- time until TORC3-eGFP becomes predominantly nuclear following LMB exposure (TORC3-eGFP; stable HEK293): approximately 90 min
- translocation of TORC3-eGFP to the nucleus (TORC3-eGFP; stable HEK293): weak or no translocation to the nucleus
- nuclear accumulation of TORC3-eGFP (TORC3-eGFP; [5]): induces accumulation of both proteins in the nuclei
- translocation of TORC1-eGFP to the nucleus (TORC1-eGFP [2]): weak or no translocation to the nucleus
- TORC1-eGFP fluorescence localization (TORC1-eGFP [2]): eGFP fluorescence originating from the cytoplasm
- induction of CRE-driven luciferase (CRE-driven luciferase; 10 nM LMB, naïve HeLa vs HeLa::TORC1-eGFP): significant induction only in the HeLa::TORC1-eGFP cells

Compound: CCCCCCCCCCCCCC(=O)O[C@@H]1[C@@H](C)[C@@]2(O)[C@@H](C=C(CO)C[C@]3(O)C(=O)C(C)=C[C@@H]23)[C@@H]2C(C)(C)[C@]12OC(C)=O [PMA, Phorbol 12-myristate 13-acetate]
- accumulation of TORC1-eGFP in the nucleus in response to PMA (TORC1-eGFP [1]; HeLa stable TORC1-eGFP, 10 uM PMA, 1 hour): induced TORC1-eGFP to accumulate in the nucleus
- activation of CRE-driven luciferase in naïve HeLa cells (CRE-driven luciferase): modest level of activation

Compound: CCCC(=O)Nc1ncnc2c1ncn2[C@@H]1O[C@@H]2COP(=O)(O)O[C@H]2[C@H]1OC(=O)CCC [db-cAMP, dibutyryl cyclic-AMP]
- translocation of TORC1-eGFP on raising intracellular cAMP (TORC1-eGFP [1]; HeLa stable TORC1-eGFP, 50 uM forskolin and 100 uM IBMX, or 1 mM db-cAMP, 2 hours): partial translocation of TORC1-eGFP
- translocation of dTORC-eGFP into the nucleus (dTORC-eGFP): induced translocation of dTORC-eGFP into the nucleus

Compound: C[C@H](CCC(=O)O)C[C@H](C)C[C@H](C)C(=O)/C=C(\O)[C@H](C)C[C@H](C)C/C=C/[C@@H](C)[C@@H](O)[C@@H](C)[C@@H](O)C[C@@H]1CC[C@@](C)([C@H]2CC[C@@](C)([C@@H](C)O)O2)O1 [ionomycin]
- accumulation of TORC1-eGFP in the nucleus in response to calcium (TORC1-eGFP [1]; HeLa stable TORC1-eGFP, 1 uM ionomycin or 10 uM CPA, 1 hour): potently induce accumulation of the TORC1-eGFP in the nucleus
- translocation of TORC2-eGFP to the nucleus (TORC2-eGFP; stable HEK293): weak or no translocation to the nucleus
- translocation of TORC3-eGFP to the nucleus (TORC3-eGFP; stable HEK293): weak or no translocation to the nucleus
- translocation of TORC1-eGFP to the nucleus (TORC1-eGFP [2]): weak or no translocation to the nucleus
- activation of CRE-driven luciferase in naïve HeLa cells (CRE-driven luciferase): modest level of activation
- translocation of dTORC-eGFP into the nucleus (dTORC-eGFP): induced translocation of dTORC-eGFP into the nucleus

Compound: CC(C)NCC(O)c1ccc(O)c(O)c1 (stereo not drawn) [isoproterenol, Isoproterenol]
- TORC2-eGFP fluorescence localization (TORC2-eGFP; [6]): fluorescence from the nucleus occurs
- TORC3-eGFP fluorescence localization (TORC3-eGFP; [6]): fluorescence from the nucleus occurs
- TORC1-eGFP fluorescence localization (TORC1-eGFP [2]): eGFP fluorescence originating from the cytoplasm

Compound: T1(1-44)eGFP: dominant interfering protein fusing the 44 amino-acid CREB-binding domain of TORC1 to eGFP (MATSNNPRKFSEKIALHNQKQAEETAAFEEVMKDLSLTRAARLQ; also: fused to eGFP)
- effect on CRE activation through forskolin/IBMX or ionomycin and PMA (CRE-luciferase [3]; HeLa, 50 uM forskolin/100 uM IBMX or 5 uM ionomycin): potently blocks CRE activation
- effect on activity of all three TORCs on CRE-activation (CRE-luciferase [3]; data not shown): inhibited
- effect on enhanced CRE-response in HhTORC1 cells (CRE-luciferase [3]; data not shown): effectively blocked
- effect on activation of NF-kappaB reporter by ionomycin and PMA (NF-kappaB reporter): no effect on activation of an NF-kappaB reporter
- effect on CRE-luciferase induction by β2AR and isoproterenol (CRE-luciferase [4]): strongly inhibits CRE-luciferase induction
